System: Huh7 psiCHECK-miR122 Renilla luciferase reporter, 48 h
Test: suppression of miR-122 activity, Renilla luciferase sensor – cell-based, Huh7 psiCHECK-miR122, cherry-pick, dose response (AID 652053)

## COc1ccccc1S(=O)(=O)Nc1cccc(S(=O)(=O)N2CCCC2)c1
  AC40: 1.26 µM

## Cc1ccc(Cn2c(NS(=O)(=O)c3ccccc3)nc3ccccc32)cc1
  AC40: 2 µM

## COc1ccc(S(=O)(=O)NC2CC3CCC2C3)cc1Cl (centres undefined)
  AC40: 4.66 µM

## COc1ccccc1CNC(=O)C[C@H]1CC[C@H]2[C@@H](COc3ccc(NS(=O)(=O)c4ccc(C)cc4)cc3C(=O)N2C)O1
  AC40: 21.5 µM

## CCOc1ccc(NS(=O)(=O)c2ccc(NC(=S)NC(=O)C(C)C)cc2)cc1
  AC40: 5.48 µM

## CCOc1ccc(C)cc1S(=O)(=O)NC1CCCCC1
  AC40: 0.575 µM

## O=S(=O)(NCC1CCCO1)c1cc(Br)c(Br)s1 (centres undefined)
  AC40: 4 µM

## CCCCNS(=O)(=O)c1ccc2nc(-c3cccnc3)cc(C(=O)NC(C)CC)c2c1 (centres undefined)
  AC40: 0.387 µM

## O=S(=O)(NCc1cccnc1)c1ccc(Cl)c2ccccc12
  AC40: 4.69 µM

## C[C@H](CO)N1C[C@H](C)[C@@H](CN(C)Cc2ccc3c(c2)OCO3)Oc2c(NS(=O)(=O)c3ccc(Cl)cc3)cccc2C1=O
  AC40: 24.2 µM

## C[C@@H]1CN([C@@H](C)CO)C(=O)Cc2cc(NC(=O)Nc3ccc4c(c3)OCO4)ccc2O[C@@H]1CN(C)C(=O)Nc1cccc2ccccc12
  AC40: 10.9 µM

## O=C(c1ccccc1F)N1CC[C@@H]2[C@@H](CO)Nc3ccc(-c4cccc(F)c4)cc3[C@@H]21
  AC40: 1.29 µM

## C[C@@H]1CN([C@H](C)CO)C(=O)c2cccc(NS(=O)(=O)c3ccccc3)c2O[C@@H]1CN(C)Cc1ccc(C(=O)Nc2ccccc2N)cc1
  AC40: 17.2 µM

## Cc1ccc(OC(C)C(=O)Nc2ccc(C)c(S(=O)(=O)Nc3ccc(C)cc3C)c2)cc1 (centres undefined)
  AC40: 12.5 µM

## Cc1ccc(-c2nnc(Nc3ccc4c(c3)OCO4)c3ccccc23)cc1S(N)(=O)=O
  AC40: 5.9 µM

## O=C1NC(c2cccc3ccccc23)Nc2ccccc21 (centres undefined)
  AC40: 5.65 µM

## O=C(NCc1cccc(Cl)c1)c1ccc(S(=O)(=O)Nc2cccc(C(F)(F)F)c2)cc1
  AC40: 22.5 µM

## C[C@H](CO)N1C[C@H](C)[C@H](CN(C)Cc2ccc(C(=O)Nc3ccccc3N)cc2)Oc2ccc(NS(=O)(=O)c3ccc(F)cc3)cc2CC1=O
  AC40: 7.93 µM

## COc1ccc(C2C(Oc3ccccc3)C(=O)N2c2cc(C)ccc2C)cc1OC (centres undefined)
  AC40: 23.1 µM

## Cc1cc(S(=O)(=O)NC2CCCCC2)c(C)s1
  AC40: 1.44 µM

## C[C@H]1CN([C@@H](C)CO)C(=O)c2cccc(NC(=O)C3CCOCC3)c2O[C@@H]1CN(C)Cc1ccc(C(F)(F)F)cc1
  AC40: 1.51 µM

## COc1cc(NS(=O)(=O)c2ccc(C)c(C)c2)c(OC)cc1Cl
  AC40: 15.2 µM

## COc1ccc(C)cc1S(=O)(=O)NCCC1=CCCCC1
  AC40: 0.465 µM

## COc1ccc(S(=O)(=O)Nc2ccc(C(F)(F)F)cc2)cc1OC
  AC40: 2.12 µM

## O=S(=O)(NC(=NCc1ccccc1)c1ccc(F)cc1)c1ccc(Cl)cc1
  AC40: 13.7 µM

## Cc1cccc(C)c1NC(=S)NC(C)CCc1ccccc1 (centres undefined)
  AC40: 17 µM

## CC(C)C(=O)Nc1cc(S(=O)(=O)Nc2cccc(Cl)c2)ccc1Cl
  AC40: 1.52 µM

## Cc1cc(C)c(C)c(S(=O)(=O)Nc2ccc(C(=O)N3CCCC3)cc2)c1C
  AC40: 2 µM

## C[C@H](CO)N1C[C@H](C)[C@@H](CN(C)Cc2ccc3c(c2)OCO3)Oc2c(NC(=O)C3CCCCC3)cccc2C1=O
  AC40: 5.43 µM

## Cc1ccc(C2c3c(-c4ccccc4O)n[nH]c3C(=O)N2Cc2ccncc2)cc1 (centres undefined)
  AC40: 8.08 µM

## C[C@@H]1CN([C@@H](C)CO)C(=O)Cc2cc(N(C)C)ccc2O[C@H]1CN(C)Cc1ccc(C(=O)Nc2ccccc2N)cc1
  AC40: 10.1 µM

## CCNS(=O)(=O)c1ccc(NS(=O)(=O)c2cc(C)ccc2C)cc1
  AC40: 1.86 µM

## O=C(Nc1ccc(S(=O)(=O)NCCc2ccccc2)cc1)c1ccc(Br)o1
  AC40: 0.54 µM

## Cc1cc(C)cc(Cn2c3ccc(NC(=S)NCc4ccccc4F)cc3c(=O)n2C)c1
  AC40: 4.19 µM

## Cc1cccc(-c2nn(-c3ccccc3)cc2C(=O)Nc2cccc(S(=O)(=O)NC3=NCCC3)c2)c1
  AC40: 18.3 µM

## O=C(NCc1ccco1)c1ccc(Cl)c(S(=O)(=O)Nc2ccccc2)c1
  AC40: 4.59 µM

## O=C(CSc1nnc(-c2cc3ccccc3cc2O)n1Cc1ccco1)c1ccc(F)cc1
  AC40: 5.74 µM

## COc1ccc(Cl)cc1NS(=O)(=O)c1cc(Cl)ccc1OC
  AC40: 4.45 µM

## CCOc1ccc(Br)cc1S(=O)(=O)NCc1ccncc1
  AC40: 1.9 µM

## Cc1ccc(-c2cc(C(=O)NCCCn3ccnc3)c3ccccc3n2)s1
  AC40: 11.1 µM

## CCC(C)c1ccc(NC(=S)NCc2cccs2)cc1 (centres undefined)
  AC40: 10.1 µM

## Cc1ccc(NS(=O)(=O)c2ccc(-c3cnc(C4CC4)o3)cc2)cc1
  AC40: 9.25 µM

## C[C@H](CO)N1C[C@H](C)[C@@H](CN(C)C(=O)Nc2cccc3ccccc23)Oc2ccc(NC(=O)Nc3ccc(C(F)(F)F)cc3)cc2CC1=O
  AC40: 7.77 µM

## Cc1cccc(NS(=O)(=O)c2cccc(C(=O)N3CCCCCCC3)c2)c1
  AC40: 1.8 µM

## Cc1ccc(-c2nn(Cc3ccccc3)cc2C(=O)N2CCN(c3ccccn3)CC2)cc1
  AC40: 2.44 µM

## COc1ccc(S(=O)(=O)N(C)C[C@H]2Oc3cc(C#CC4CCCC4)ccc3S(=O)(=O)N([C@H](C)CO)C[C@@H]2C)cc1
  AC40: 1.58 µM

## O=C(Nc1sc2c(c1C(=O)O)CCC2)c1cccs1
  AC40: 9.16 µM

## CCOC(=O)C1CCCCN1C(=O)c1cc2ccc(OC)cc2c2cc(OC)c(OC)cc12 (centres undefined)
  AC40: 4.65 µM

## O=S(=O)(N/N=C\c1cccn1-c1ccccc1)c1ccc2ccccc2c1
  AC40: 0.263 µM

## CCN(CC)S(=O)(=O)c1cc(NS(=O)(=O)c2cc(Cl)ccc2Cl)ccc1C
  AC40: 4.19 µM

## COc1cc(NS(=O)(=O)c2csc(C(N)=O)c2)cc(OC)c1
  AC40: 1.51 µM

## CCNS(=O)(=O)c1cc(Br)ccc1OC
  AC40: 3.4 µM

## O=S(=O)(/N=C(/Nc1ccc(Cl)c(S(=O)(=O)N2CCOCC2)c1)c1ccc(F)cc1)c1ccccc1
  AC40: 0.864 µM

## O=S(=O)(NCCC1=CCCCC1)c1ccccc1Cl
  AC40: 3.9 µM

## C[C@H](CO)N1C[C@H](C)[C@@H](CN(C)Cc2ccc(C(=O)Nc3ccccc3N)cc2)Oc2c(NS(=O)(=O)c3ccccc3)cccc2C1=O
  AC40: 20.2 µM

## Cc1ccc(NC(=O)Cc2cn(C)c3ccccc23)cc1F
  AC40: 7.09 µM

## Cc1cc(C)c(S(=O)(=O)Nc2cccc(S(=O)(=O)N3CCOCC3)c2)c(C)c1
  AC40: 2.71 µM

## CCOc1ccccc1CN(Cc1ccco1)S(=O)(=O)c1ccc(-n2cnnn2)c(OC)c1
  AC40: 4.36 µM

## COc1ccc(C)cc1NS(=O)(=O)c1ccc2c(c1)CCN2C(C)=O
  AC40: 8.33 µM

## COc1cccc(NS(=O)(=O)c2ccc3c(c2)N(C(C)=O)CCO3)c1
  AC40: 3.67 µM

## O=S(=O)(c1ccccc1F)N1CC[C@@H]2[C@@H](CO)Nc3ccc(-c4ccc(F)cc4)cc3[C@@H]21
  AC40: 5.7 µM

## COc1ccccc1C(=O)Nc1ccc2c(c1)C(=O)N(C)[C@H]1CC[C@@H](CC(=O)NCc3ccc(Cl)c(Cl)c3)O[C@H]1CO2
  AC40: 0.359 µM

## O=C(C1CCCCC1)N1C[C@H]2[C@@H](c3ccccc31)[C@@H](CO)N2C(=O)c1ccccc1
  AC40: 1.37 µM

## CN(C)S(=O)(=O)c1ccc(NS(=O)(=O)/C=C/c2ccccc2)cc1
  AC40: 2.27 µM

## Cn1cc(CC(=O)Nc2cccc(C#N)c2)c2ccccc21
  AC40: 3.57 µM

## O=S(=O)(NC1CCCCC1)c1ccc(-c2csnn2)s1
  AC40: 3.8 µM

## CC(C)(C)C(=O)Nc1cc(S(=O)(=O)Nc2ccc(Cl)cc2)ccc1Cl
  AC40: 2.74 µM

## C[C@H](CO)N1C[C@H](C)[C@@H](CN(C)Cc2ccc(Oc3ccccc3)cc2)Oc2c(NC(=O)c3ccncc3)cccc2C1=O
  AC40: 2.42 µM

## CCCCNS(=O)(=O)c1ccc(OC)c(Cl)c1Cl
  AC40: 3.99 µM

## Cc1ccc([N+](=O)[O-])cc1N(CC(=O)Nc1ccc(S(=O)(=O)Nc2cccc(C(F)(F)F)c2)cc1)S(C)(=O)=O
  AC40: 14 µM

## CCCCNS(=O)(=O)c1ccc2nc(SCC(=O)Nc3sccc3C#N)[nH]c2c1
  AC40: 0.553 µM

## Cc1ccc(S(=O)(=O)NC23CC4CC(CC(C4)C2)C3)cc1
  AC40: 2.15 µM

## O=S(=O)(NCCc1ccncc1)c1cc(Br)ccc1F
  AC40: 2.66 µM

## CCOC(=O)c1ccc(S(=O)(=O)NC2CCCCCCC2)n1C
  AC40: 3.76 µM

## C[C@H](CO)N1C[C@H](C)[C@@H](CN(C)Cc2ccc(Oc3ccccc3)cc2)Oc2c(NC(=O)C3CCOCC3)cccc2C1=O
  AC40: 1.31 µM

## CC1CCN(C(=O)CN(c2ccc3c(c2)OCCO3)S(=O)(=O)c2ccccc2)CC1
  AC40: 2.51 µM

## CC(C)NC(=O)Nc1cccc2c1O[C@@H](CN(C)Cc1ccc(C(F)(F)F)cc1)[C@H](C)CN([C@H](C)CO)C2=O
  AC40: 1.52 µM

## S=C(NCc1ccncc1)Nc1cc(Cl)cc(Cl)c1
  AC40: 5.2 µM

## Cc1ccc(C)c(S(=O)(=O)Nc2ccc(-n3cnnn3)cc2)c1
  AC40: < 0.26 µM

## O=C(c1ccc(F)cc1)N1C[C@H]2[C@@H](c3ccccc31)[C@@H](CO)N2C(=O)c1ccc(F)cc1
  AC40: 1.59 µM

## COc1ccc(C2CCCCCN2Cc2nc3ccccc3c(=O)n2CC(N)=O)cc1 (centres undefined)
  AC40: 9.73 µM

## Nc1c(S(=O)(=O)c2cc(Cl)ccc2Cl)c2nc3ccccc3nc2n1CCN1CCOCC1
  AC40: 6.22 µM

## S=C(NCc1cccs1)Nc1cccc(Cl)c1
  AC40: 3.93 µM

## Cc1ccc(NC(=S)NCc2ccc(F)cc2)cc1
  AC40: 20.3 µM

## O=S(=O)(NCCOCC(F)(F)C(F)F)c1ccc2oc3ccccc3c2c1
  AC40: 15.3 µM

## CN1C(=O)c2cccc3c(S(=O)(=O)NCCc4ccccc4)ccc1c23
  AC40: 0.281 µM

## C[C@@H]1CN([C@@H](C)CO)C(=O)c2cccc(NC(=O)Nc3ccccc3)c2O[C@H]1CN(C)Cc1ccc(C(F)(F)F)cc1
  AC40: 2.49 µM

## O=S(=O)(Nc1ccc2ccccc2c1)c1ccccc1
  AC40: 12.5 µM

## COc1cc(CN(C)C(=O)C(=O)c2c[nH]c3ccccc23)ccc1O
  AC40: 6.67 µM

## COc1ccc(NS(=O)(=O)c2ccc(NC(=S)NC(=O)CC(C)C)cc2)cc1
  AC40: 0.502 µM

## O=C(CN1c2ccccc2Sc2ccccc21)NNC(=O)Nc1cccc(Cl)c1
  AC40: 17.1 µM

## CC12CCC3C(CCC4(O)CC(O)CCC34C=O)C1(O)CCC2C1=CC(=O)OC1 (centres undefined)
  AC40: 2.4 µM

## COc1ccccc1C(=O)Nc1ccc2c(c1)C(=O)N(C)[C@H]1CC[C@H](CC(=O)NCc3ccc(Cl)c(Cl)c3)O[C@H]1CO2
  AC40: 0.333 µM

## COC(=O)c1c(C)oc(C)c1S(=O)(=O)NCC1CC1
  AC40: 3.29 µM

## CCc1ccc(OC)c(S(=O)(=O)Nc2ccccc2C)c1
  AC40: 1.03 µM

## COc1ccc(NC(=O)Nc2ccc3c(c2)C(=O)N([C@H](C)CO)C[C@@H](C)[C@@H](CN(C)S(=O)(=O)c2ccc(OC)cc2)O3)cc1
  AC40: 1.21 µM

## O=S(Cc1ccccc1)CC(O)(c1ccc(Cl)cc1)c1ccc(Cl)cc1 (centres undefined)
  AC40: 10.5 µM

## CCCNC(=O)NC[C@@H]1[C@@H](c2ccc(C3=CCCCC3)cc2)[C@H](CO)N1C(C)=O
  AC40: 2.47 µM

## CCOc1cc(C)c(S(=O)(=O)NC2CCCCC2)cc1C
  AC40: 1.49 µM
